Results reported in patent US12209102B2, “Heterocyclic compounds and uses thereof” (Kumquat Biosciences Inc., priority 2022, dated 2025).

What was measured:
[1] = target: T1, K-Ras G12D (Homo sapiens, UniProt P01116, G12D); experiment: HTRF resonance energy transfer assay, K-Ras G12D / SOS1 interaction; assay type: biochemical; settings: HTRF assay of Example 5; read-out: IC50 against K-Ras G12D
T1 construct: made in house; host or cells: E. coli BL21 (DE3)
Method in brief: (§1)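 Read-out: HTRF 665/620 nm ratio (excitation 337 nm) after roughly 10 min or longer incubation, used to derive IC50. Donor anti-GST-Eu on GST-K-Ras; acceptor anti-6His-XL665 on His-hSOS1. Duplicate dose series from 10 μM down to 0.01 μM.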

[2] = target: T2, K-Ras G12S (Homo sapiens, UniProt P01116, G12S); experiment: HTRF resonance energy transfer assay, K-Ras G12S / SOS1 interaction; assay type: biochemical; settings: HTRF assay of Example 5; read-out: IC50 against K-Ras G12S
T2 construct: made in house; host or cells: E. coli BL21 (DE3)
Method in brief: as §1

[3] = target: T3, K-Ras G12V (Homo sapiens, UniProt P01116, G12V); experiment: HTRF resonance energy transfer assay, K-Ras G12V / SOS1 interaction; assay type: biochemical; settings: HTRF assay of Example 5; read-out: IC50 against K-Ras G12V
T3 construct: made in house; host or cells: E. coli BL21 (DE3)
Method in brief: as §1

[4] = target: T4, K-Ras WT (Homo sapiens, UniProt P01116); experiment: HTRF resonance energy transfer assay, K-Ras WT / SOS1 interaction; assay type: biochemical; settings: HTRF assay of Example 5; read-out: IC50 against K-Ras WT
T4 construct: made in house; host or cells: E. coli BL21 (DE3)
Method in brief: as §1

[5] = test system: GP2D cells; experiment: Ras cellular assay, growth of cells with K-Ras G12D mutation (CellTiter-Glo); assay type: cell-based; settings: cell growth, Example 9, G12D mutation, read-out: IC50 against GP2D cells
[6] = test system: A549 cells; experiment: Ras cellular assay, growth of cells with K-Ras G12S mutation (CellTiter-Glo); assay type: cell-based; settings: Homo sapiens, cell growth, Example 9, G12S mutation, read-out: IC50 against A549 cells
Method in brief: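 A549 cells (K-Ras G12S) in RPMI-1640 with 10% heat-inactivated FBS, seeded e.g. 800 per well in standard or ultra-low-attachment 384-well plates, treated next day with a dilution series (e.g. 10-point, 3-fold). Viability by CellTiter-Glo luminescence about 6 days later; IC50 from four-parameter fit.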

[7] = test system: SW620 cells; experiment: Ras cellular assay, growth of cells with K-Ras G12V mutation (CellTiter-Glo); assay type: cell-based; settings: Homo sapiens, SW-620; cell growth, Example 9, G12V mutation; read-out: IC50 against SW620 cells
Method in brief: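 SW620 (K-Ras G12V) cells, e.g. 800/well in RPMI-1640 with 10% heat-inactivated FBS on standard or ultra-low attachment plates, were dosed the day after plating with e.g. a 10-point 3-fold series. Viability by CellTiter-Glo luminescence about 6 days later; IC50 from four-parameter fit.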

T1 sequence (P01116 1-188 isoform P01116-2 G12D): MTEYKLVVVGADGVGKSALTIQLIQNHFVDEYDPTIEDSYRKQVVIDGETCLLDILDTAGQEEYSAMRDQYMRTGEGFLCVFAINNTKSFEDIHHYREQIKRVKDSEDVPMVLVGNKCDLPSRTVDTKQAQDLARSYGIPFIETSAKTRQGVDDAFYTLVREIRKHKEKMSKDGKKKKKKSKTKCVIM
T2 sequence (P01116 1-188 isoform P01116-2 G12S): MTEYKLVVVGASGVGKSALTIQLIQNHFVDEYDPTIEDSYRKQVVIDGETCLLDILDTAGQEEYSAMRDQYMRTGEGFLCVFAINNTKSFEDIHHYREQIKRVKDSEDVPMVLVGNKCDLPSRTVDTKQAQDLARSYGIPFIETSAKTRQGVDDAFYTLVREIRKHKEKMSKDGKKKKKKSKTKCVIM
T4 sequence (P01116 1-188 isoform P01116-2): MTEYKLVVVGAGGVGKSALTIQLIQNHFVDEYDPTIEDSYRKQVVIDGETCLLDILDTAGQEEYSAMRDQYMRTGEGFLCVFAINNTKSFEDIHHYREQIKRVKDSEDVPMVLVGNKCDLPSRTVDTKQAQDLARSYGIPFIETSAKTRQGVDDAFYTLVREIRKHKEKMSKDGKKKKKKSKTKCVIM
T3 sequence (P01116 1-188 isoform P01116-2 G12V): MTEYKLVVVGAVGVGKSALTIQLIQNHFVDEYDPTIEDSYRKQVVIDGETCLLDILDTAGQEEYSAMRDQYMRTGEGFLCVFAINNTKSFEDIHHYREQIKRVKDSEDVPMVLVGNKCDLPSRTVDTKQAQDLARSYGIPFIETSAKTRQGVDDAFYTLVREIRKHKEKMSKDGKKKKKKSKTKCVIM

Row | Compound | IC50 [1] [nM] | IC50 [2] [nM] | IC50 [3] [nM] | IC50 [4] [nM] | IC50 [5] [nM] | IC50 [6] [nM] | IC50 [7] [nM]
1 | CC(C)[C@H]1COc2c(Cl)c(-c3ccc(F)c4sc(N)c(C#N)c34)c(F)c3nc(OC[C@@]45CCCN4C[C@H](F)C5)nc(c23)N1CC(F)F [Compound 884, 2-amino-4-((5S)-8-chloro-4-(2,2-difluoroethyl)-10-fluoro-2-(((2R,7aS)-2-fluorotetrahydro-1H-pyrrolizin-7a(5H)-yl)methoxy)-5-isopropyl-5,6-dihydro-4H-[1,4]oxazepino[5,6,7-de]quinazolin-9-yl)-7-fluorobenzo[b]thiophene-3-carbonitrile] | < 100 | < 100 | < 100 | < 100 | < 500 | < 5000 | < 5000
2 | CC1COc2c(Cl)c(-c3ccc(F)c4sc(N)c(C#N)c34)c(F)c3nc(OC[C@@]45CCCN4C[C@H](F)C5)nc(c23)N1[C@@H]1CCOC1 (stereo partly drawn) [Compound 888, 2-amino-4-(8-chloro-10-fluoro-2-(((2R,7aS)-2-fluorotetrahydro-1H-pyrrolizin-7a(5H)-yl)methoxy)-5-methyl-4-((R)-tetrahydrofuran-3-yl)-5,6-dihydro-4H-[1,4]oxazepino[5,6,7-de]quinazolin-9-yl)-7-fluorobenzo[b]thiophene-3-carbonitrile] | < 100 | < 100 | < 100 | < 100 | < 500 | < 5000 | < 5000
3 | N#Cc1c(N)sc2c(F)ccc(-c3c(Cl)c4c5c(nc(OC[C@@]67CCCN6C[C@H](F)C7)nc5c3F)N(C3CC3)CCO4)c12 [Compound 891, 2-amino-4-(8-chloro-4-cyclopropyl-10-fluoro-2-(((2R,7aS)-2-fluorotetrahydro-1H-pyrrolizin-7a(5H)-yl)methoxy)-5,6-dihydro-4H-[1,4]oxazepino[5,6,7-de]quinazolin-9-yl)-7-fluorobenzo[b]thiophene-3-carbonitrile] | < 100 | < 100 | < 100 | < 100 | < 500 | < 5000 | < 5000
4 | N#Cc1c(N)sc2c(F)ccc(-c3c(Cl)c4c5c(nc(OC[C@@]67CCCN6C[C@H](F)C7)nc5c3F)N(C3CC5CCC3N5C=O)CCO4)c12 (stereo partly drawn) [Compound 892, 2-amino-4-(8-chloro-10-fluoro-2-(((2R,7aS)-2-fluorotetrahydro-1H-pyrrolizin-7a(5H)-yl)methoxy)-4-(7-formyl-7-azabicyclo[2.2.1]heptan-2-yl)-5,6-dihydro-4H-[1,4]oxazepino[5,6,7-de]quinazolin-9-yl)-7-fluorobenzo[b]thiophene-3-carbonitrile] | < 100 | < 100 | < 100 | < 100 | < 500 | < 5000 | < 5000
5 | N#Cc1c(N)sc2c(F)ccc(-c3c(Cl)c4c5c(nc(OC[C@@]67CCCN6C[C@H](F)C7)nc5c3F)N(C3CCn5nccc5C3)CCO4)c12 (stereo partly drawn) [Compound 893, 2-amino-4-(8-chloro-10-fluoro-2-(((2R,7aS)-2-fluorotetrahydro-1H-pyrrolizin-7a(5H)-yl)methoxy)-4-(4,5,6,7-tetrahydropyrazolo[1,5-a]pyridin-5-yl)-5,6-dihydro-4H-[1,4]oxazepino[5,6,7-de]quinazolin-9-yl)-7-fluorobenzo[b]thiophene-3-carbonitrile] | < 100 | < 100 | < 100 | < 100 | < 500 | < 5000 | < 5000
6 | CN1c2nc(OC[C@@]34CCCN3C[C@H](F)C4)nc3c(F)c(-c4ccc(F)c5sc(N)c(C#N)c45)c(Cl)c(c23)OCC1CO (stereo partly drawn) [Compound 900, 2-amino-4-(8-chloro-10-fluoro-2-(((2R,7aS)-2-fluorotetrahydro-1H-pyrrolizin-7a(5H)-yl)methoxy)-5-(hydroxymethyl)-4-methyl-5,6-dihydro-4H-[1,4]oxazepino[5,6,7-de]quinazolin-9-yl)-7-fluorobenzo[b]thiophene-3-carbonitrile] | < 100 | < 100 | < 100 | < 100 | < 500 | < 5000 | < 5000
7 | C[C@H](Oc1nc2c3c(c(Cl)c(-c4ccc(F)c5sc(N)c(C#N)c45)c(F)c3n1)OCCN2CC(F)F)[C@@H]1CCCN1C [Compound 901, 2-amino-4-(8-chloro-4-(2,2-difluoroethyl)-10-fluoro-2-((S)-1-((S)-1-methylpyrrolidin-2-yl)ethoxy)-5,6-dihydro-4H-[1,4]oxazepino[5,6,7-de]quinazolin-9-yl)-7-fluorobenzo[b]thiophene-3-carbonitrile] | < 100 | < 100 | < 100 | < 100 | < 500 | < 5000 | < 5000
8 | N#Cc1c(N)sc2c(F)ccc(-c3c(Cl)c4c5c(nc(OC[C@@]67CCCN6C[C@H](F)C7)nc5c3F)N(CC(F)F)[C@@H](CN)CO4)c12 [Compound 914, 2-amino-4-((5S)-5-(aminomethyl)-8-chloro-4-(2,2-difluoroethyl)-10-fluoro-2-(((2R,7aS)-2-fluorotetrahydro-1H-pyrrolizin-7a(5H)-yl)methoxy)-5,6-dihydro-4H-[1,4]oxazepino[5,6,7-de]quinazolin-9-yl)-7-fluorobenzo[b]thiophene-3-carbonitrile] | < 100 | < 100 | < 100 | < 100 | < 500 | < 5000 | < 5000
9 | N#Cc1c(N)sc2c(F)ccc(-c3c(Cl)c4c5c(nc(OC[C@@]67CCCN6C[C@H](F)C7)nc5c3F)N(C3CCN(C(=O)[C@@H]5N[C@H]5C5CC5)C3)CCO4)c12 (stereo partly drawn) [Compound 915, 2-amino-4-(8-chloro-4-(1-((2R,3S)-3-cyclopropylaziridine-2-carbonyl)pyrrolidin-3-yl)-10-fluoro-2-(((2R,7aS)-2-fluorotetrahydro-1H-pyrrolizin-7a(5H)-yl)methoxy)-5,6-dihydro-4H-[1,4]oxazepino[5,6,7-de]quinazolin-9-yl)-7-fluorobenzo[b]thiophene-3-carbonitrile] | < 100 | < 100 | < 100 | < 100 | < 500 | < 5000 | < 5000
10 | N#Cc1c(N)sc2c(F)ccc(-c3c(Cl)c4c5c(nc(OC[C@@]67CCCN6C[C@H](F)C7)nc5c3F)N(C3CCN(C(=O)C5C6COCC65)C3)CCO4)c12 (stereo partly drawn) [Compound 916, 4-(4-(1-(3-oxabicyclo[3.1.0]hexane-6-carbonyl)pyrrolidin-3-yl)-8-chloro-10-fluoro-2-(((2R,7aS)-2-fluorotetrahydro-1H-pyrrolizin-7a(5H)-yl)methoxy)-5,6-dihydro-4H-[1,4]oxazepino[5,6,7-de]quinazolin-9-yl)-2-amino-7-fluorobenzo[b]thiophene-3-carbonitrile] | < 100 | < 100 | < 100 | < 100 | < 500 | < 5000 | < 5000
11 | CN1CCC(N2CCOc3c(Cl)c(-c4ccc(F)c5sc(N)c(C#N)c45)c(F)c4nc(OC[C@@]56CCCN5C[C@H](F)C6)nc2c34)C1 (stereo partly drawn) [Compound 921, 2-amino-4-(8-chloro-10-fluoro-2-(((2R,7aS)-2-fluorotetrahydro-1H-pyrrolizin-7a(5H)-yl)methoxy)-4-(1-methylpyrrolidin-3-yl)-5,6-dihydro-4H-[1,4]oxazepino[5,6,7-de]quinazolin-9-yl)-7-fluorobenzo[b]thiophene-3-carbonitrile] | < 100 | < 100 | < 100 | < 100 | < 500 | < 5000 | < 5000
12 | CC(C1CC1C#N)N1CCOc2c(Cl)c(-c3ccc(F)c4sc(N)c(C#N)c34)c(F)c3nc(OC[C@@]45CCCN4C[C@H](F)C5)nc1c23 (stereo partly drawn) [Compound 923, 2-amino-4-(8-chloro-4-(1-(2-cyanocyclopropyl)ethyl)-10-fluoro-2-(((2R,7aS)-2-fluorotetrahydro-1H-pyrrolizin-7a(5H)-yl)methoxy)-5,6-dihydro-4H-[1,4]oxazepino[5,6,7-de]quinazolin-9-yl)-7-fluorobenzo[b]thiophene-3-carbonitrile] | < 100 | < 100 | < 100 | < 100 | < 500 | < 5000 | < 5000
